From patent US20140303144A1, “COMPOUNDS AND METHODS OF TREATING HYPERTENSION” (Medivation Technologies, Inc., priority 2011, published 2014)

Tests used:
[1] = test system: New Zealand White rabbits; conditions: conscious rabbits, intravenous cumulative doses, positive control
Description: Four adult New Zealand White rabbits of both sexes are chosen for these studies. […] The conscious rabbits are implanted with an intravenous catheter in marginal ear vein or by centrally by intracisternal catheter interfaced to a pressure transducer connected to a suitable recorder. To unveil peripheral effects of test compound, two sets of acute studies are conducted in rabbits. In the first set of studies, test compound is dosed to rabbit intravenously for a dose-response study with cumulative doses starting 0 (Ringer's Lock solution as a vehicle), 0.1, 0.3, 1, 3.2 and 10 mg/kg where each dose is tested on a separate day. A single intravenous bolus dose at 3 mg/kg is given and a time-course study is conducted in the second set of studies. Systolic, diastolic, mean and diastolic blood pressures are recorded in both the studies. Data collections are made for 3 hours in the second set of studies. Heart rate (HR) is derived electronically using an algorithm to determine HR from pulse interval. In a separate set of studies, Clonidine (positive control) is tested where all experimental procedures including dose-regimen are identical to that of the studies with test compound.

[2] = test system: SH-SY5Y cells; assay: Cell viability assay (MTS reduction) against 4-Br-A23187 challenge; assay type: cell-based; conditions: compound 10 nM, 4-Br-A23187 (2 μM) for 24 h; for viability at 0.01 µM: Homo sapiens, SH-SY5Y, Control = 100, Vehicle = 0, read-out: Relative Cytoprotective capacity
Description: SH-SY5Y cells cultured in DMEM/F12 media supplemented with 10% FBS were seeded in 96-well microplates at 150,000 cells/cm^2. After 24 h, cells were depleted from FBS and kept in culture for 24 h before the experiment. A stock solution was prepared by dissolving the calcium ionophore 4-Br-A23187 (Calbiochem Cat. N^o 100107) in DMSO at 25 mM. Cells were then treated with 4-Br-A23187 (2 μM), hydrogen peroxide (300 μM) or the mitochondrial toxin rotenone (25 μM) in the presence of vehicle or Compound of the Invention for 24 h. Cell death was determined by measurements of LDH release according to the Cytotoxicity Detection KitPlus (Roche, Mannheim, Germany). Cell viability was determined by measuring the capacity of cells to metabolize MTS tetrazolium (MTS) according to the Cytotoxicity Detection KitPlus (Roche, Mannheim, Germany) and MTS reduction was assessed by the CellTiter 96® AQueous One Solution Cell Proliferation assay (Promega Corporation, Madison, Wis., USA). Compounds were screened at 10 nM, using DMSO as vehicle. Assay results for the experiments with Br-A23187 were presented as the MTS reduction capacity (cell viability) of untreated cells (control), 4-Br-A23187-treated cells (vehicle), and co-incubation of Br-A23187 with Compounds of the Invention treated cells and using […] (FCCP) at 10 μM for 30 min as a control. This assay assesses the ability of the test compounds to protect against cell death that was mediated by mitochondrial dysfunction. In the assay, the calcium ionophore 4-Br-A23187 was used to challenge the cells, causing calcium levels to rise in mitochondria, which leads to depolarization and cell death. Test compounds were assessed for their ability to prevent cell death in response to challenge with 4-Br-A23187.

| Compound | viability at 0.01 µM [2] [%] | other results |
| --- | --- | --- |
| Clc1cccc(Cl)c1N=C1NCCN1 [Clonidine] | – | maximum drop of arterial blood pressure [1]: −6 mmHg |
| CN1CCc2[nH]c3c(N(C)Cc4ccccc4)cccc3c2C1 [A1] | -1.1 | – |
| Cc1cc(C#Cc2ccncc2)c2[nH]c3c(c2c1)CN(C)CC3 [A5] | 28.8 | – |
| Cc1ccc2[nH]c3c(c2c1)CN(C)CC3(C)CCc1ccccc1 (stereo not shown) [C43] | – | Relative Cytoprotective capacity ([2]; Control = 100, Vehicle = 0): 9.618 |
| Cc1cc(CCc2ccc(C)nc2)c2[nH]c3c(c2c1)CN(C)CC3 [A2] | -4.41 | – |
| Cc1cc(C#Cc2ccc(C)nc2)c2[nH]c3c(c2c1)CN(C)CC3 [A6] | 27.6 | – |
| CN1CCc2[nH]c3c(NCc4ccccc4)cccc3c2C1 [A3] | 35.1 | – |
| Cc1ccc2c(c1)c1c3n2CC(C)(c2ccncc2)OC(C)CC3(C)CN(C)C1 (stereo not shown) [D9] | 81.1 | – |
| Cc1ccc2c(c1)c1c3n2CC=C(c2ccc(F)cc2)CC3(C)CN(C)C1 (stereo not shown) [D5] | 72.1 | – |
| Cc1ccc2c(c1)c1c3n2CC(c2ccc(F)cc2)CCC3(C)CN(C)C1 (stereo not shown) [D7] | 72.1 | – |
